Reference: ChEMBL document CHEMBL1201862, “PubChem BioAssay data set” (2004)
Activity calls are given as the source filed them.

Key:
[1] = molecular target: T1, Calpain-2 catalytic subunit (Sus scrofa, UniProt P43367); test: pig calpain II inhibitor potency, dose response, biochemical, fluorogenic peptide substrate (AID 1420); type: functional
T1 sequence (P43367 whole entry): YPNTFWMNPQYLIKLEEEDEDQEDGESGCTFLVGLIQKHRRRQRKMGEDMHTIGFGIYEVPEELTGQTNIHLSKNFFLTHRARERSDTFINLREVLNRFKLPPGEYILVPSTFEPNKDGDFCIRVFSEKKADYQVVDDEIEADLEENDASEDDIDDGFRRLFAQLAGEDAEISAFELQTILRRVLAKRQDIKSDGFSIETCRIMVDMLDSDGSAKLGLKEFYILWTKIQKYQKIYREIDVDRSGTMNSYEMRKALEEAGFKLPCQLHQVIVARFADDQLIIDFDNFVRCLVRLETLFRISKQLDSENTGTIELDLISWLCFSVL

[2] = off-target signal loss in HeLa-CEM21 co-culture – HeLa F-luc CTL cells, cherry-picked, counter-screen for HIV-1 Env fusion inhibitor project, dose response (AID 652040); type: functional, cell-based;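 note: potency for signal decrease marking cytotoxic or nonspecific inhibition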
[3] = ZM109 Env clade C HIV-1 fusion inhibitors, dose response, HeLa effector, CEM target cells, luciferase, cherry-pick (AID 652058); type: functional, cell-based
[4] = inhibitors of clade B AD8 Env fusion, dose response, cell-based, cherry-pick (AID 652062); type: functional;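 note: luciferase signal from cell-cell fusion driven by HIV-1 clade B AD8 Env; potency is for inhibitors of fusion seen as a drop in luminescence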
Cytochrome P450 1A2 = molecular target: T2, Cytochrome P450 1A2 (Homo sapiens, UniProt P05177);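 note: PubChem cytochrome P450 panel assay, CYP1A2 panel member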
T2 sequence (P05177 whole entry): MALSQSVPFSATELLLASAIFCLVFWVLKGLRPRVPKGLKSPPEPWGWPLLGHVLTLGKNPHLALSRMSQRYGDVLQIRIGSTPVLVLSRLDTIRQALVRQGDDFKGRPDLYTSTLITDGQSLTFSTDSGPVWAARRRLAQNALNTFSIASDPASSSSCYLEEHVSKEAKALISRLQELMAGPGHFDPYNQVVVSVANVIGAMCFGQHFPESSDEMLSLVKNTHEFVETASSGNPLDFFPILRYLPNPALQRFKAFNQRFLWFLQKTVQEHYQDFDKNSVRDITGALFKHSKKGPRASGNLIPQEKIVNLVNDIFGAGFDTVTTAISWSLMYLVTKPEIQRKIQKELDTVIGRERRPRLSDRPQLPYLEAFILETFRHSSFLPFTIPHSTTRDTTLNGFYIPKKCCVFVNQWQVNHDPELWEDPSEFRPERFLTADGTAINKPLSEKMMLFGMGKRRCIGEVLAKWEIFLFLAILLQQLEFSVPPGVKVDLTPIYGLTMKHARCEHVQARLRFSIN

[5] = inhibitors of HIV Env-driven cell fusion, dose response, cherry-pick (AID 652057); type: functional, cell-based
[6] = molecular target: T3, Rac GTPase-activating protein 1 (Homo sapiens, UniProt Q9H0H5); test: MgcRacGAP GTPase-activating activity inhibitors, confirmation, biochemical, ADP Hunter fluorescence, primary and confirmatory (AID 624330); type: functional
T3 sequence (Q9H0H5 whole entry): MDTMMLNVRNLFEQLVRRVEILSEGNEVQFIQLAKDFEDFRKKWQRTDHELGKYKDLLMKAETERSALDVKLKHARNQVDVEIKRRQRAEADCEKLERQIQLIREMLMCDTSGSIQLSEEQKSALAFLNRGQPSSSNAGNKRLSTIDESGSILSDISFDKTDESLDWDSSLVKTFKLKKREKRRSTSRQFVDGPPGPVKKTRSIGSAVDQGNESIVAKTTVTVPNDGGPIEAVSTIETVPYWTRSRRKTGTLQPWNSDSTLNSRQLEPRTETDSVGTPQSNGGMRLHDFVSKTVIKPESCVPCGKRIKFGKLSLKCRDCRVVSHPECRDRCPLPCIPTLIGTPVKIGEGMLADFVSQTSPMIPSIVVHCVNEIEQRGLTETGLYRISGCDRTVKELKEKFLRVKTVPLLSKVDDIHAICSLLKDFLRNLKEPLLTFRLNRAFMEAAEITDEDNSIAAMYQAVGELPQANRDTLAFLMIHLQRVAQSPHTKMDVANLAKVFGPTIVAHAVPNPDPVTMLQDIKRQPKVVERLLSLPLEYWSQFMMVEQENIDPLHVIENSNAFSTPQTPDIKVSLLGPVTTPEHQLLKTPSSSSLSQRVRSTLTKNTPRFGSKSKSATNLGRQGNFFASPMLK

Large T antigen = Large T antigen (Simian virus 40, UniProt P03070); type: functional, Betapolyomavirus macacae;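 note: Confirmatory-stage PubChem screen for compounds that inhibit SV40 T antigen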
Large T antigen, sequence (P03070 whole entry): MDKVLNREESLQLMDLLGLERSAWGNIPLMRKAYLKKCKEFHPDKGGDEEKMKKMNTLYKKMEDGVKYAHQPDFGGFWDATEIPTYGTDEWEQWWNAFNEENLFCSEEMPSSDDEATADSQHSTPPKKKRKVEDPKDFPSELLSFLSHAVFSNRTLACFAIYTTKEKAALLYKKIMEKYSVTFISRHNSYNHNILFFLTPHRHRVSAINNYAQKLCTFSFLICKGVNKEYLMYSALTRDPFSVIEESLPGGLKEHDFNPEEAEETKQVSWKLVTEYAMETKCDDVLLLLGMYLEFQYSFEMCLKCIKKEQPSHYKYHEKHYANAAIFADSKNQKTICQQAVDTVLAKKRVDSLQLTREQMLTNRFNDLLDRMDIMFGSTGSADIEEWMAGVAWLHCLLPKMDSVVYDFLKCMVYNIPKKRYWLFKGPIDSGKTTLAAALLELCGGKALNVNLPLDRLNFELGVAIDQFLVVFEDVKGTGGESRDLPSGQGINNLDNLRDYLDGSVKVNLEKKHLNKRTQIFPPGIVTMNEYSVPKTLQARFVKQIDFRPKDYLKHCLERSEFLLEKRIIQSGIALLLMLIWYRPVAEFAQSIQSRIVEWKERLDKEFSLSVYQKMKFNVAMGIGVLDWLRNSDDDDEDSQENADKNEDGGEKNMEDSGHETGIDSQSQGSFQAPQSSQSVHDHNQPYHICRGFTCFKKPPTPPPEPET

[7] = microbe, parasite or virus in culture; type: functional; conditions: Mycobacterium tuberculosis
Prothrombin = Prothrombin (Homo sapiens, UniProt P00734); test: Thrombin 1536 HTS Dose Response Confirmation. [Related pubchem assays: 1046 (Thrombin 1536 HTS; hits were confirmed in this assay)]; type: functional
[8] = inhibitors of intracellular T. cruzi replication, confirmation, NIH3T3 host cells, beta-gal luminescence (AID 2044); type: functional, cell-based;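 note: intracellular parasites grown in NIH/3T3 mouse fibroblasts as host cells; luminescent beta-galactosidase reporter signal from transgenic T. cruzi replicating inside host cells; inhibitors lower the luminescence signal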
[9] = cytotoxicity toward NIH3T3 fibroblasts, dose response, counter-screen, cell-based, ATP luminescence, mouse fibroblasts (AID 2010); type: functional;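 note: cells exposed to compound for about 90 hours before reading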
[10] = Shn3 3'UTR reporter inhibitors, dose response, cell-based, Clone20 osteoblasts, firefly luciferase, cherry-picked (AID 624132); type: functional;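 note: firefly luciferase luminescence from reporter carrying the Shn3 3'UTR in osteoblasts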
Protein RecA = molecular target: T4, Protein RecA (Mycobacterium tuberculosis, UniProt P9WHJ3); test: Fluorescence Cell-Free Homogeneous Dose Retest to Identify Inhibitors of RecA-Intein Splicing Activity. [Related pubchem assays (depositor defined):AID2097, AID2223, AID489010, AID492950]; type: functional
T4 sequence (P9WHJ3 whole entry): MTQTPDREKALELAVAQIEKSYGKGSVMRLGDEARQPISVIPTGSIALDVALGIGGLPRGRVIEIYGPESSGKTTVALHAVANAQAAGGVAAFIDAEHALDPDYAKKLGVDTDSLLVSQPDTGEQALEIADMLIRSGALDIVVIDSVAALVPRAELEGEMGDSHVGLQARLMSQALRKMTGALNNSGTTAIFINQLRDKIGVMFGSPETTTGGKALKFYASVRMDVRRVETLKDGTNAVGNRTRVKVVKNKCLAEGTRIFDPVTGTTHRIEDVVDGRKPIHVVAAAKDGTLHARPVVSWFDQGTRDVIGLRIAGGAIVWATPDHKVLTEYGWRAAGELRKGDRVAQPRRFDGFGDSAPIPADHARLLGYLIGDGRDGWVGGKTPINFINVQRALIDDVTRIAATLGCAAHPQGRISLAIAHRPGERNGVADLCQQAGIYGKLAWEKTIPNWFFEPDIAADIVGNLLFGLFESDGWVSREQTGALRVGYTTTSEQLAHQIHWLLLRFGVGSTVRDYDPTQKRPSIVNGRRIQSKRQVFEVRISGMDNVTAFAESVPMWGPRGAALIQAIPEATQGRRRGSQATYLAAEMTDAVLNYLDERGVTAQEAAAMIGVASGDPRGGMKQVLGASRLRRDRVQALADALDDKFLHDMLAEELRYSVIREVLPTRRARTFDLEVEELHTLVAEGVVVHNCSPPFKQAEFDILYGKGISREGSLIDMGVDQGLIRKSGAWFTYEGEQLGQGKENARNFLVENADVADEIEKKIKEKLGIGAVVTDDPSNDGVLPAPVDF

[11] = molecular target: T5, Replicative DNA helicase DnaB (Mycobacterium tuberculosis, UniProt P9WMR3); test: DnaB intein splicing inhibitors, dose response, biochemical, cell-free fluorescence (AID 449749); type: functional
T5 sequence (P9WMR3 whole entry): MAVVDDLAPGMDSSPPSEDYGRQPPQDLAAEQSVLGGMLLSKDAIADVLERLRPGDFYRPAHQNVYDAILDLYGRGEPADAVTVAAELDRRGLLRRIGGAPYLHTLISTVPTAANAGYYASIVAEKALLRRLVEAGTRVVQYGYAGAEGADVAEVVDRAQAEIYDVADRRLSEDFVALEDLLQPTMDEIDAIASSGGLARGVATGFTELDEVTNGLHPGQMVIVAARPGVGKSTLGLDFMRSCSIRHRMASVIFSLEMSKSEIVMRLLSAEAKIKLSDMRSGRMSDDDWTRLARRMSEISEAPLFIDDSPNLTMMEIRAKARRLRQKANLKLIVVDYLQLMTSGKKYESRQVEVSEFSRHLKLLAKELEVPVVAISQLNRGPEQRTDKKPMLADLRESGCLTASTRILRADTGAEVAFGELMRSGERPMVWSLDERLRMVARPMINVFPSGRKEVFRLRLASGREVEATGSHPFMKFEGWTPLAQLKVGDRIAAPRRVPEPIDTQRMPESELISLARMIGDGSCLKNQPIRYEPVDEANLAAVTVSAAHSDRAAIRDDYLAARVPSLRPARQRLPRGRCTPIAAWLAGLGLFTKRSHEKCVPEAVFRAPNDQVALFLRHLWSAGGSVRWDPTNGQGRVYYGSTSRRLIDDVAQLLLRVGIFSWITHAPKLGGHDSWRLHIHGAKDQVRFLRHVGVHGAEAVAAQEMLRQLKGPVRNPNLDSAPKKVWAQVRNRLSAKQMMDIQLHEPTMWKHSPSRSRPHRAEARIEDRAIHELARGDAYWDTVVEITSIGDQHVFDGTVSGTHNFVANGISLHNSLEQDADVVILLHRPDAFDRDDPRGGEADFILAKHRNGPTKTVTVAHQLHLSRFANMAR

[12] = HEp-2 cell cytotoxicity, dose response, cytotoxicity control for RSV inhibitor project, HTS (AID 2410); type: functional; conditions: human respiratory syncytial virus
[13] = Luminescence Cell-Based Dose Confirmation HTS to Identify Activators of 5'UTR Stem-Loop Driven Alpha-Synuclein mRNA Translation in H4 Neuroglioblastoma Cells. [Related pubchem assays: 1829 (Project Summary), 1814 (Primary HTS)]; type: functional
[14] = Luminescence Cell-Based Dose Response HTS to Identify Activators of Luciferase Translation or Activity in H4 […] Cells. [Related pubchem assays: 1829 (Project Summary), 1814 (Primary HTS)]; type: functional
H4 = test: Luminescence Cell-Based Dose Response HTS to Identify Activators of 5'UTR Stem-Loop Driven Prion Protein mRNA Translation in H4 Neuroglioblastoma Cells. [Related pubchem assays: 1829 (Project Summary), 1814 (Primary HTS)]; type: functional; conditions: Homo sapiens
[15] = molecular target: FAD-linked sulfhydryl oxidase ALR (Homo sapiens, UniProt P55789); test: inhibitors of human ALR sulfhydryl oxidase, dose response, biochemical, H2O2 detection, luminescence, cherry-pick (AID 493248)
FAD-linked sulfhydryl oxidase ALR, sequence (P55789 whole entry): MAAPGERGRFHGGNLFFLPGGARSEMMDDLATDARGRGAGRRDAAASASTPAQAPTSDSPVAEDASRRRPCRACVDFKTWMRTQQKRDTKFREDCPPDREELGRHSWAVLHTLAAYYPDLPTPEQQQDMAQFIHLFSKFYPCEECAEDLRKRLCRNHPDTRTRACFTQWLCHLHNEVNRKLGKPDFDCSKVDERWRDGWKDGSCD

Cytochrome P450 2C9 = Cytochrome P450 2C9 (Homo sapiens, UniProt P11712)
Cytochrome P450 2C9, sequence (P11712 whole entry): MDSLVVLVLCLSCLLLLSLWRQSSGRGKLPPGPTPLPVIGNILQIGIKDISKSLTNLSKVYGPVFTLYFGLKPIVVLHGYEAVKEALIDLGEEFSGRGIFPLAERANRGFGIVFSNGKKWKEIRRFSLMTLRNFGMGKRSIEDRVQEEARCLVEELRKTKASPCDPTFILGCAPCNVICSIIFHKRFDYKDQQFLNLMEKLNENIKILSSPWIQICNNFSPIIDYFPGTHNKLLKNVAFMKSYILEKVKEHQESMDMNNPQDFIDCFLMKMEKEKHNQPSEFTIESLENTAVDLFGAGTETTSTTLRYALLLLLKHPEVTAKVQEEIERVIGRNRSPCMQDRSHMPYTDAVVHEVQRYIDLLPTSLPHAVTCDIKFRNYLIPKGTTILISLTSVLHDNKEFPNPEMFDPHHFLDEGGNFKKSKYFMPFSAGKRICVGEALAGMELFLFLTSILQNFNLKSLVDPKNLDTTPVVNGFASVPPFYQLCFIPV

## O=c1c2c(-c3ccccc3)csc2ncn1/N=C/c1ccc(O)c([N+](=O)[O-])c1
[1]
  IC50: 9.57 µM (not active)

## Cc1cc(Oc2ccc(C#N)cc2)nc(NCc2ccccc2)n1
[2]
  AC50: > 70 µM (inactive)
[3]
  AC50: 5.62 µM (active)
[4]
  AC50: 9.81 µM (active)

## Cn1c(=O)n(-c2cccc(Cl)c2)c(=O)c2c3c(sc21)COC(C)(C)C3
[2]
  AC50: 6.71 µM (active)
Cytochrome P450 1A2
  AC50: 14.1 µM (inconclusive)
[3]
  AC50: 3.36 µM (active)
[5]
  AC50: 3.65 µM (active)
[4]
  AC50: 1.37 µM (active)

## COc1ccc(/N=C/c2c(O)cc(C)oc2=O)cc1
[6]
  IC50: 85.2 µM (active)
Large T antigen
  IC50: 7.84 µM (active)

## Cc1ccc(-c2csc3nc4c5ccccc5c(NCCCN5CCOCC5)nn4c(=O)c23)cc1
[7]
  CC50: 13.6 µM (active)

## COc1ccccc1C(=O)n1nc(-c2ccco2)nc1N
Prothrombin
  IC50: 6.93 µM (active)

## CCC(C(=O)OCC(=O)Nc1ccc(SC(F)F)cc1)c1ccccc1 (stereo not drawn)
[8]
  EC50: 1.68 µM (active)
Prothrombin
  IC50: > 50 µM (not active)
[9]
  EC50: > 60 µM (not active)
[1]
  IC50: 7.17 µM (not active)

## CCOc1ccc2nc(SC3CC(=O)N(c4ccc(C)cc4)C3=O)sc2c1 (stereo not drawn)
[10]
  AC50: 15.6 µM (active)

## CCc1nc2ccccc2c(C(=O)OCC(=O)C(C)(C)C)c1C
Prothrombin
  IC50: > 50 µM (not active)

## C=CCn1c(SCc2c(C)noc2C)nc2cc(C(=O)O)ccc2c1=O
Prothrombin
  IC50: > 50 µM (not active)

## Nc1nc(-c2ccco2)nn1C(=O)c1ccc(Cl)cc1
Protein RecA
  EC50: 55.4 µM (active)
Prothrombin
  IC50: 1.46 µM (active)
[11]
  AC50: 14 µM (active)

## O=C(N(Cc1ccccc1)c1ccccn1)C12CC3CC(CC(C3)C1)C2
[2]
  AC50: 2.99 µM (active)
[3]
  AC50: 2.19 µM (active)
[5]
  AC50: 1.62 µM (active)
[4]
  AC50: 6.03 µM (active)

## COc1ccc2cc(C(=O)N3CCCCCC3)sc(=O)c2c1OC
[1]
  IC50: 11.1 µM (active)

## COc1cccc(C(=O)N2c3ccccc3Sc3ccccc32)c1
[1]
  IC50: 6.88 µM (not active)

## Cn1c(N)c(C(=O)COC(=O)CCC2CCCC2)c(=O)n(C)c1=O
[1]
  IC50: 15.5 µM (not active)

## CCC(CC)NC(=O)COC(=O)c1ccc(OCC(=O)Nc2ccccc2OC)c(OC)c1
[1]
  IC50: 18.5 µM (not active)

## CC(C)c1ccc(NC(S)=Nc2ccc3c[nH]nc3c2)cc1
Prothrombin
  IC50: 2.49 µM (active)
[12]
  CC50: 37.9 µM (active)

## O=C(c1ccco1)N1CCCC(Nc2ccc3c(c2)OCCO3)C1 (stereo not drawn)
[13]
  EC50: 8.81 µM (active)
Large T antigen
  IC50: 29.3 µM (active)
[14]
  EC50: 9.98 µM (active)
H4
  EC50: 37.7 µM (active)

## CC(C)c1onc(C(=O)Nc2cccc(Cl)c2)c1[N+](=O)[O-]
[1]
  IC50: 2.32 µM (not active)

## COc1cc(/C=N/n2nnnc2N)ccc1O
[6]
  IC50: 16.9 µM (active)
[15]
  AC50: 1.2 µM (active)
Large T antigen
  IC50: 4.83 µM (active)

## COc1ccc([C@H]2/C=C\CN(C(=O)C3CC3)[C@@H](C)C(=O)N2Cc2ccc(F)cc2)cc1
[2]
  AC50: 7.85 µM (active)
[3]
  AC50: 0.488 µM (active)
[5]
  AC50: 4.42 µM (active)
[4]
  AC50: 4.99 µM (active)

## Cc1ccc(C(=O)O)cc1N1C(=O)c2cccc3cc(Br)cc(c23)C1=O
Cytochrome P450 2C9
  AC50: 15.8 µM (inconclusive)
[1]
  IC50: 7.36 µM (not active)

## Cc1cc(C)cc(OCC(=O)NNC(=O)CN2C(=O)c3ccccc3C2=O)c1
Prothrombin
  IC50: > 50 µM (not active)
